According to US20230012172A1, “COMPOSITIONS AND METHODS FOR TREATMENT OF PLATINUM-BASED CHEMOTHERAPEUTIC RESISTANT TUMORS” (The George Washington University, priority 2020, published 2023):
Where a chain is given by its changes, count along the chain named.

Experiments:
SENP1-C603A = target: T1, SENP1-C603A (Homo sapiens, UniProt Q9P0U3, C603A); test: In vitro thermal shift assay with mutant SENP1-C603A; assay type: binding; settings: purified mutant SENP1-C603A
T1 construct: made in house; host or cells: E. coli implied (pGEX-4T1 vector)
T1 sequence (Q9P0U3 1-644 C603A): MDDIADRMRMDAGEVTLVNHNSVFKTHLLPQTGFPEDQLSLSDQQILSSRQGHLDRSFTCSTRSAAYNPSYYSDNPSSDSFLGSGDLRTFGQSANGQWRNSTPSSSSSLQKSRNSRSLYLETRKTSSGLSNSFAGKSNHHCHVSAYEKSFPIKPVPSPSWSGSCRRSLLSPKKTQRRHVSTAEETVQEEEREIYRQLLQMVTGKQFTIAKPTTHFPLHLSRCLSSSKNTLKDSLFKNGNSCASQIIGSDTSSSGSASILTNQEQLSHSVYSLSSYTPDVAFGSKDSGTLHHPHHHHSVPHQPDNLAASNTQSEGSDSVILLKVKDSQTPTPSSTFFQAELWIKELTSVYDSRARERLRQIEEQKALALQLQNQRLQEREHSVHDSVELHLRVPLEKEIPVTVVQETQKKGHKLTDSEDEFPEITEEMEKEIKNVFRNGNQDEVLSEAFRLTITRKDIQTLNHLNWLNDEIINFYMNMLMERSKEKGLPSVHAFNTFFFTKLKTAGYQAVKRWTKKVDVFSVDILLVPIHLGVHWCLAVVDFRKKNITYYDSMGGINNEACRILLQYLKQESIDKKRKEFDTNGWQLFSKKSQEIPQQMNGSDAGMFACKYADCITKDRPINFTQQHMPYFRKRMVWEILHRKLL

SENP1 = target: T2, SENP1 (Homo sapiens, UniProt Q9P0U3); test: SENP1 inhibition in IGROV1 cells (SUMOylated JAK2, Western blot); assay type: cell-based; design: endogenous in cells; host or cells: IGROV1; settings: incubated 48 hours, read-out: inhibited deSUMOylation of JAK2 with IC50
T2 sequence (Q9P0U3 1-644): T1 sequence (Q9P0U3 1-644 C603A) with A603C
Method: FIGS. 11A-11L depict images illustrating identification of a novel potent SENP1 inhibitor, UA. FIGS. 11A and 11B show Mc (FIG. 11A) and UA (FIG. 11B) inhibited SENP1 activity in vivo. IGROV1 cells were incubated with Mc or UA for 48 hours and harvested for Western blot for indicated proteins. […]. Intensity of SUMOylated JAK2 in B was measured by Quantity One software. FIGS. 11D and 11E show Mc (FIG. 11D) and UA (FIG. 11E) inhibited SENP1 activity in vitro. Recombinant His-JAK2 was SUMOylated as in FIG. 2F, followed by incubation with recombinant GST-SENP1 together with Mc or UA for 3 hours (h). […]. Intensity of SUMOylated JAK2 was measured by Quantity One software. […] SENP1 stability was analyzed using Western blot against SENP1 antibody in IGROV1 cells. […] SENP1 stability was analyzed by using Western blot against SENP1 antibody. […] Green: UA; Salmon: interface. Right panel, active residues of SENP1 for SENP1:UA complex. Green: UA; Salmon: active residues. […] Stability of SENP1-C603A was analyzed by using Western blot against SENP1 antibody
To determine the functional consequence of SENP1-JAK2 interaction, it was examined whether inhibition of SENP1 affected SUMOylation of JAK2. To this end, JAK2 was immunoprecipitated and the SUMOylation level of JAK2 was evaluated using an antibody against SUMO2/3 in SENP1 depleted cells.

| Compound | thermal stabilization of SENP1-C603A proteins (SENP1-C603A) | IC50 (SENP1) |
| --- | --- | --- |
| CC1(C)CC[C@]2(C(=O)O)CC[C@]3(C)C(=CC[C@@H]4[C@@]5(C)CC[C@H](O[C@@H]6O[C@H](C(=O)O)[C@@H](O)[C@H](O[C@@H]7OC[C@@H](O)[C@H](O)[C@H]7O)[C@H]6O)C(C)(C)[C@@H]5CC[C@]43C)[C@@H]2C1 [Mc, Momordin Ic] | no longer stabilized | 31.8 µM |
| C[C@H]1[C@H](C)CC[C@]2(C(=O)O)CC[C@]3(C)C(=CC[C@@H]4[C@@]5(C)CC[C@H](O)C(C)(C)[C@@H]5CC[C@]43C)[C@H]12 [UA, ursolic acid] | no longer stabilized | 0.24 µM |
